Test results taken from the supplement of paper PMC10331698.
± gives the standard deviation of the averaged measurements.

What was measured:
Experiment in all cases: level (log10 ratio to DMSO vehicle control); higher = higher biomarker level / cell amount than vehicle control
Conditions in all cases: in DMSO
[1] = compound: C=CC(=O)OCC(F)(F)C(F)(F)C(F)(F)C(F)(F)C(F)(F)C(F)(F)C(F)(F)F [1H,1H-Perfluorooctyl acrylate]
Experimental: (§1)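 BioMAP Diversity Plus panel of 12 human primary cell co-culture systems (3C, 4H, LPS, SAg, BT, BF4T, BE3C, CASM3C, HDF3CGF, KF3CT, MyoF, Mphg). Compounds were added 1 h before stimulation and left for 24 h (MyoF 48 h; BT 72 h for soluble read-outs or 6 d for IgG). Biomarkers were read by ELISA, cytotoxicity by SRB, PBMC viability and proliferation by Alamar Blue. Each well value was divided by the mean of 8 DMSO control wells on the same plate and log10 transformed; duplicate blinded samples were tested at 4 concentrations.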

Perfluoroheptanoic acid = compound: O=C(O)C(F)(F)C(F)(F)C(F)(F)C(F)(F)C(F)(F)C(F)(F)F [Perfluoroheptanoic acid]
Experimental: as §1

[2] = compound: O=C(O)C(F)(F)OC(F)(F)C(F)(F)OC(F)(F)C(=O)O [Perfluoro-3,6-dioxaoctane-1,8-dioic acid]
Experimental: as §1

[3] = compound: O=C(O)C(F)(F)C(F)(F)OC(F)(F)F [Perfluoro-3-methoxypropanoic acid]
Experimental: as §1

[4] = compound: O=S(=O)(O)C(F)(F)C(F)(F)C(F)(F)C(F)(F)C(F)(F)C(F)(F)F [Perfluorohexanesulfonic acid]
Experimental: as §1

Perfluoro-1-iodohexane = compound: FC(F)(F)C(F)(F)C(F)(F)C(F)(F)C(F)(F)C(F)(F)I [Perfluoro-1-iodohexane]
Experimental: as §1

Test System	level (log10) ([1]; 6700 nM)	level (log10) ([1]; 20000 nM)	level (log10) ([1]; 60000 nM)	level (log10) (Perfluoroheptanoic acid; 6700 nM)	level (log10) (Perfluoroheptanoic acid; 20000 nM)	level (log10) (Perfluoroheptanoic acid; 60000 nM)	level (log10) ([2]; 6700 nM)	level (log10) ([2]; 20000 nM)	level (log10) ([2]; 60000 nM)	level (log10) ([3]; 6700 nM)	level (log10) ([3]; 20000 nM)	level (log10) ([3]; 60000 nM)	level (log10) ([4]; 6700 nM)	level (log10) ([4]; 20000 nM)	level (log10) ([4]; 60000 nM)	level (log10) (Perfluoro-1-iodohexane; 6700 nM)	level (log10) (Perfluoro-1-iodohexane; 20000 nM)	level (log10) (Perfluoro-1-iodohexane; 60000 nM)
3C:CD141/Thrombomodulin	-0.027 ± 0.017	-0.023 ± 0.018	-0.0455 ± 0.021	0.0185 ± 0.0035	0.0035 ± 0.00071	0.0205 ± 0.0021	-0.0265 ± 0.036	-0.0065 ± 0.023	0.0095 ± 0.028	0.0005 ± 0.087	-0.0245 ± 0.036	-0.0215 ± 0.023	-0.008 ± 0.035	-0.015 ± 0.023	-0.004 ± 0.0028	-0.025 ± 0.013	-0.023 ± 0.014	-0.0015 ± 0.005
lMphg:CCL3/MIP-1alpha	0.0215 ± 0.028	0.04 ± 0.0071	0.057 ± 0.0099	-0.0265 ± 0.013	-0.0075 ± 0.0078	0.018 ± 0.017	-0.036 ± 0.025	-0.045 ± 0.0042	-0.027 ± 0.04	-0.0175 ± 0.012	-0.053 ± 0.0071	-0.0175 ± 0.019	-0.006 ± 0.04	0.0055 ± 0.037	0.045 ± 0.034	0.033 ± 0.031	0.023 ± 0.0042	0.0285 ± 0.033
CASM3C:CD141/Thrombomodulin	-0.002 ± 0.0028	0.0035 ± 0.011	0.002 ± 0.017	-0.0085 ± 0.025	0.0065 ± 0.0064	0.011 ± 0.033	0.0045 ± 0.018	0.002 ± 0.0028	0.017 ± 0.0071	-0.003 ± 0.0028	-0.014 ± 0.0099	0.021 ± 0.04	0.0005 ± 0.0064	0.0015 ± 0.005	-0.0055 ± 0.022	0.0055 ± 0.015	-0.006 ± 0.0028	-0.004 ± 0.0028
lMphg:SRB	-0.006 ± 0.0071	-0.013 ± 0.016	-0.0035 ± 0.012	-0.013 ± 0.02	-0.01 ± 0.0028	-0.002 ± 0.0014	-0.0035 ± 0.013	-0.009 ± 0.014	-0.0035 ± 0.015	-0.006 ± 0.0014	-0.0185 ± 0.005	0 ± 0.0028	-0.016 ± 0.037	-0.0045 ± 0.0078	-0.0265 ± 0.029	-0.0055 ± 0.00071	-0.0025 ± 0.0035	0.0035 ± 0.0078
CASM3C:CD106/VCAM-1	0.007 ± 0.016	0.014 ± 0.0014	-0.0055 ± 0.0092	-0.0085 ± 0.0035	-0.0135 ± 0.021	0.012 ± 0.054	-0.005 ± 0.0014	-0.003 ± 0.0042	0.0175 ± 0.042	-0.0155 ± 0.013	-0.03 ± 0.0071	0.012 ± 0.02	-0.0145 ± 0.023	-0.0175 ± 0.016	-0.047 ± 0.024	0.003 ± 0.017	-0.003 ± 0.025	-0.023 ± 0.041
HDF3CGF:PAI-I	0.032 ± 0.011	0.0515 ± 0.037	0.036 ± 0.069	-0.017 ± 0.0028	-0.0215 ± 0.0035	-0.008 ± 0.041	0.0055 ± 0.015	0.0135 ± 0.029	0.0295 ± 0.012	0.0025 ± 0.0092	0.0135 ± 0.026	0.0185 ± 0.012	-0.0185 ± 0.019	-0.0145 ± 0.023	-0.004 ± 0.0057	0.017 ± 0.011	0.005 ± 0.031	-0.041 ± 0.014
CASM3C:Proliferation	-0.0105 ± 0.029	0.0435 ± 0.013	-0.028 ± 0.027	-0.023 ± 0.0085	-0.008 ± 0.035	0.0045 ± 0.053	0.0055 ± 0.0035	-0.0135 ± 0.025	-0.0075 ± 0.0092	-0.024 ± 0.023	-0.0095 ± 0.029	-0.0075 ± 0.025	0.014 ± 0.014	0.002 ± 0.014	0.0185 ± 0.011	0.023 ± 0.0071	-0.02 ± 0.013	-0.021 ± 0.067
HDF3CGF:SRB	-0.003 ± 0.0099	0.0015 ± 0.025	0.0115 ± 0.0092	-0.029 ± 0.016	0.0125 ± 0.064	-0.045 ± 0.052	0.009 ± 0.041	-0.0035 ± 0.015	-0.0125 ± 0.012	-0.0005 ± 0.042	0.014 ± 0.0071	0 ± 0.023	0.017 ± 0.011	0.0145 ± 0.022	-0.009 ± 0.0085	0.021 ± 0.035	0.0085 ± 0.018	-0.0085 ± 0.067
HDF3CGF:Proliferation 72hr	0.0035 ± 0.0092	-0.056 ± 0.078	-0.168 ± 0.0092	-0.054 ± 0.033	0.0515 ± 0.098	-0.018 ± 0.018	0.0035 ± 0.0035	0.008 ± 0.016	0.012 ± 0.035	-0.028 ± 0.0085	0.0125 ± 0.016	0.0225 ± 0.023	0.054 ± 0.035	0.072 ± 0.051	0.107 ± 0.024	-0.0315 ± 0.019	-0.028 ± 0.0014	-0.468 ± 0.57
MyoF:CXCL8/IL-8	0.002 ± 0.0099	0.037 ± 0.062	0.0185 ± 0.036	0.002 ± 0.0042	0.0205 ± 0.005	0.0175 ± 0.035	-0.0025 ± 0.023	-0.012 ± 0.0085	0.034 ± 0.045	0.001 ± 0.033	-0.0165 ± 0.0092	0.0475 ± 0.0078	0.001 ± 0.061	-0.0185 ± 0.063	-0.018 ± 0.051	0.021 ± 0.041	0.023 ± 0.041	0.0385 ± 0.028
3C:CD62E/E-Selectin	-0.001 ± 0.0071	-0.006 ± 0.0099	0.0035 ± 0.013	0.007 ± 0.0042	0.0125 ± 0.0078	0.0185 ± 0.00071	0.0015 ± 0.029	-0.0185 ± 0.0092	-0.005 ± 0.02	0.0015 ± 0.016	-0.0155 ± 0.016	0.0005 ± 0.0078	-0.0075 ± 0.011	0.012 ± 0.0042	0.0685 ± 0.018	-0.0025 ± 0.00071	-0.0165 ± 0.0035	-0.0025 ± 0.029
MyoF:CD106/VCAM-1	-0.011 ± 0.0042	-0.0095 ± 0.0035	-0.024 ± 0.0042	-0.013 ± 0.0071	-0.004 ± 0.016	-0.0125 ± 0.015	-0.022 ± 0.016	0.0025 ± 0.005	0.0005 ± 0.019	-0.014 ± 0.0042	0.0035 ± 0.013	0.001	0.005 ± 0.018	0.003 ± 0.0042	-0.0145 ± 0.023	-0.031 ± 0.016	-0.102 ± 0.064	-0.337 ± 0.03
HDF3CGF:CCL2/MCP-1	-0.0055 ± 0.018	-0.0235 ± 0.021	-0.046 ± 0.03	-0.0085 ± 0.0064	0.0135 ± 0.00071	0.0115 ± 0.016	0 ± 0.016	0.005 ± 0.0071	0.0135 ± 0.016	-0.002 ± 0.0071	-0.0055 ± 0.00071	0.0085 ± 0.022	0.009 ± 0.0057	0.007 ± 0.014	0.021 ± 0.031	-0.0125 ± 0.013	-0.02 ± 0.0099	-0.065 ± 0.034
BE3C:MMP-9	-0.0135 ± 0.025	-0.013 ± 0.024	-0.022 ± 0.018	0.0015 ± 0.018	0.042 ± 0.0014	0.0785 ± 0.057	-0.0115 ± 0.0078	-0.0035 ± 0.028	0.0385 ± 0.00071	0.009 ± 0.021	-0.002 ± 0.028	0.0285 ± 0.0078	0.0095 ± 0.026	0.014 ± 0.0071	0.0275 ± 0.00071	0.0075 ± 0.0092	0.013 ± 0.0028	0.001 ± 0.023
CASM3C:HLA-DR	0.0075 ± 0.00071	0.002 ± 0.018	0.0045 ± 0.013	-0.009 ± 0.0085	-0.0315 ± 0.005	-0.004 ± 0.052	-0.022 ± 0.018	-0.0385 ± 0.019	0.0135 ± 0.063	-0.035 ± 0.033	-0.0245 ± 0.0092	0.004 ± 0.041	0.0105 ± 0.015	-0.001 ± 0.013	-0.008 ± 0.028	0.0075 ± 0.0092	0.004 ± 0.0057	0.0095 ± 0.022
